Patent US9624167B2, “N-(4-hydroxy-4-methyl-cyclohexyl)-4-phenyl-benzenesulfonamides and N-(4-hydroxy-4-methyl-cyclohexyl)-4-(2-pyridyl)benzenesulfonamides and their therapeutic use” (PIMCO 2664 LIMITED, priority 2013, dated 2017)
Like-named read-outs stand apart in the source and are kept apart here.

Key:
B-lymphocytes [1] = experiment: Human primary leucocyte viability: B-lymphocytes; type: cell-based; conditions: 3 μM
Procedure: (§1) The effects of the reference compound (ABD735) on the viability of neutrophils, monocytes, CD4+ and CD8+ T-cells and B-lymphocytes was assessed under both resting and stimulated conditions. Resting conditions were used to assess likely effects on normal cells found in human blood, and stimulated conditions were used to assess the effects of the compound under disease conditions.
(§2) Effects on cell viability were assessed using flow cytometry. Flow cytometry is a laser-based, biophysical technology employed in cell counting, cell sorting, and biomarker detection, by suspending cells in a stream of fluid and passing them by an electronic detection apparatus. It allows simultaneous multi-parametric analysis of the physical and chemical characteristics of up to thousands of particles per second. The sorting of cells using flow cytometry requires the use of specific cell markers. To quantify cell numbers, counting beads are used as an internal standard. […] In addition, for B- and T-lymphocytes, cell proliferation was measured using a dye known as Cell Proliferation Dye (eFluor® 450). eFluor® 450 is an organic dye which can be conjugated to cell-specific markers. […]
(§3) The average results (n=3) for the reference compound (ABD735) were expressed as a fold change versus the average control value. […]

B-lymphocytes [2] = experiment: Human primary leucocyte proliferation: B-lymphocytes; type: cell-based; conditions: 3 μM
Procedure: as §2, with “standard. Counting beads are a calibrated suspension of microbeads which are added to a known volume of sample so the sample volume per bead is known.” for “standard.”
PBMCs (peripheral blood mononuclear cells) were collected from healthy donors (all female) and isolated by centrifugation on a layer of Ficoll Paque (GE Healthcare, UK). […] Following incubation, the cells were stained with anti-human CD19, a marker of B-lymphocytes, before being analysed on a flow cytometer. […]
as §3

CD8+ T-lymphocytes = experiment: Human primary leucocyte proliferation: CD8+ T-lymphocytes; type: cell-based; conditions: 3 μM, 5 days
Procedure: as §2, with “standard. Counting beads are a calibrated suspension of microbeads which are added to a known volume of sample so the sample volume per bead is known.” for “standard.”
(§4) PBMCs (peripheral blood mononuclear cells) were collected from healthy donors (all female) and isolated by centrifugation on a layer of Ficoll Paque (GE Healthcare, UK). […] Following incubation, the cells were stained with either anti-human CD8 or CD4 before being analysed on a flow cytometer. […]
as §3

CD4+ T-lymphocytes = experiment: Human primary leucocyte proliferation: CD4+ T-lymphocytes; type: cell-based; conditions: 3 μM, 5 days
Procedure: as §2, with “standard. Counting beads are a calibrated suspension of microbeads which are added to a known volume of sample so the sample volume per bead is known.” for “standard.”
as §4, §3

Monocytes = experiment: Human primary leucocyte viability: monocytes; type: cell-based; conditions: 3 μM, 48 hours
Procedure: as §1
Effects on cell viability were assessed using flow cytometry. Flow cytometry is a laser-based, biophysical technology employed in cell counting, cell sorting, and biomarker detection, by suspending cells in a stream of fluid and passing them by an electronic detection apparatus. It allows simultaneous multi-parametric analysis of the physical and chemical characteristics of up to thousands of particles per second. The sorting of cells using flow cytometry requires the use of specific cell markers. To quantify cell numbers, counting beads are used as an internal standard. Counting beads are a calibrated suspension of microbeads which are added to a known volume of sample so the sample volume per bead is known. This allows the absolute determination of cell number in a sample. In addition, for B- and T-lymphocytes, cell proliferation was measured using a dye known as Cell Proliferation Dye (eFluor® 450). eFluor® 450 is an organic dye which can be conjugated to cell-specific markers. It fluoresces when excited by a laser in a manner proportional to the number of cells bound by the conjugate. Its signal therefore provides an indication of the proliferation of specific cell types.
PBMCs (peripheral blood mononuclear cells) were collected from healthy donors (all male) and isolated by centrifugation on a layer of Ficoll Paque (GE Healthcare, UK). Cells were then resuspended (3×10^6 cells/mL) in RPMI supplemented with 10% FCS and antibiotics (penicillin 100 U/mL, streptomycin 100 μg/mL) and 1 mL of cell suspension was added to a 48-well plate, which was then incubated for 1 hour at 37° C./5% CO2. Subsequently, the supernatant was aspirated to remove non-adherent cells, which was followed by two washing steps to ensure removal of non-adhered cells. Adhered cells (monocytes) were then stimulated with either LPS (10 ng/mL), TNFα (10 ng/mL) or macrophage colony stimulating factor (M-CSF) (10 ng/mL) in the absence (control) or presence of reference compound (ABD735) (at 30, 10, 3, 1, or 0.3 μM) for 48 hours at 37° C./5% CO2. Subsequently, the plates were centrifuged and the monocytes washed in PBS before addition of PBS plus EDTA (10 mM) and incubation at 4° C. for 20 minutes to help detach the cells, which was facilitated by pipetting. […]
as §3

[3] = Maximum Tolerated Dose, Han Wistar rats; conditions: rat, in vivo, oral
Procedure: The acute safety of the compounds was assessed in rats in order to enable determination of the maximum tolerated dose (MTD), an indication of a compound's safety in animals. The higher the MTD, the greater is the potential safety of the compound being tested.
At the completion of the study, the results were expressed as the maximum tolerated dose for each compound, this being the highest of each without unacceptable toxicity.
The maximum dose without unacceptable side-effects was determined to be the MTD (expressed in mg/kg).

| SMILES | Fold change in viability (B-lymphocytes [1]; SAC/IL-2, 48 hours) | Fold change in viability (B-lymphocytes [1]; no stimulation, 48 hours) | Fold change in proliferation (B-lymphocytes [2]; SAC/IL-2, 5 days) | Fold change in proliferation (B-lymphocytes [2]; no stimulation, 5 days) | Fold change in proliferation (CD8+ T-lymphocytes; no stimulation) | Fold change in proliferation (CD8+ T-lymphocytes; phytohaemagglutinin) | Fold change in proliferation (CD4+ T-lymphocytes; no stimulation) | Fold change in proliferation (CD4+ T-lymphocytes; phytohaemagglutinin) | Fold change in viability (Monocytes; LPS) | Fold change in viability (Monocytes; M-CSF) | Fold change in viability (Monocytes; TNFα) | Fold change in viability (Monocytes; no stimulation) | MTD ([3]; female Han Wistar rats, read-out: Maximum tolerated dose, Females) [mg/kg] | MTD ([3]; male Han Wistar rats, read-out: Maximum tolerated dose, Males) [mg/kg] |
| --- | --- | --- | --- | --- | --- | --- | --- | --- | --- | --- | --- | --- | --- | --- |
| Cc1cc(S(=O)(=O)N[C@H]2CC[C@H](O)CC2)ccc1-c1ccc(F)cc1F [ABD735] | 1.1 | 0.9 | 0.6 | 0.9 | 0.7 | 0.3 | 1 | 0.6 | 1.0 | 1.1 | 0.5 | 0.7 | – | – |
| C[C@]1(O)CC[C@H](NS(=O)(=O)c2ccc(-c3ccc(Cl)cc3C#N)cc2)CC1 [HMC-C-01-A, 4′-Chloro-2′-cyano-N-((1r,4r)-4-hydroxy-4-methylcyclohexyl)biphenyl-4-sulfonamide] | – | – | – | – | – | – | – | – | – | – | – | – | > 500 | > 500 |
